Laboratory results taken from EP1200395B1, “UREA DERIVATIVES AS INHIBITORS OF CCR-3 RECEPTOR” (KIRIN BEER KABUSHIKI KAISHA, priority 1999, dated 2001).
One block for each compound: values may come before it.

Target: T1, CCR-3 (Homo sapiens, UniProt P51677)
T1 sequence (P51677 1-355): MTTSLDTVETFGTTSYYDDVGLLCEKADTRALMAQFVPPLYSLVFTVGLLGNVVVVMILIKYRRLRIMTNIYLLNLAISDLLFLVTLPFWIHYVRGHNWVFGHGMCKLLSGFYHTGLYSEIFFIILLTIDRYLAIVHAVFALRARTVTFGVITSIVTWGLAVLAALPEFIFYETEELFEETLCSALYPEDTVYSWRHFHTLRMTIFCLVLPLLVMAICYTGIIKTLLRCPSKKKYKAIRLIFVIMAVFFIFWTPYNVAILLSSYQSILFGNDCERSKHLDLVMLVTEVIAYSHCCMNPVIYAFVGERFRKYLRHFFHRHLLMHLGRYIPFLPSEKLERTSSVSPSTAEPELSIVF
Assay: Eotaxin-induced chemotaxis of CCR-3 transfectant cells (CCR3/U937)
Assay type: cell-based
Design: expressed in transfected cells; host or cells: U937
Details: eotaxin 1 x 10^-9 M; for inhibition at 10 µM: U-937; for inhibition at 10 µM / Chemotaxis Assay 10 µM (inhibition %): 10 µM test compound; for Chemotaxis Assay 0.1 µg/ml (inhibition %): test compound 0.1 µg/ml, CCR3/U937 transfectants, 37 °C, 1 hour

Compound: CC(=O)c1cccc(NC(=O)NCCCN(CCCC(=O)O)C2CCCc3ccccc32)c1 (stereo not shown) [Compound 262]
- Chemotaxis Assay 10 µM (inhibition %) (CCR3/U937 cells (Table 3a)): 62%

Compound: COC(=O)CCCN(CCCNC(=O)Nc1ccccc1)CCc1ccc(Cl)cc1 [Compound 274]
- Chemotaxis Assay 10 µM (inhibition %) (CCR3/U937 cells (Table 3a)): 60%

Compound: COC(=O)CCCN(CCCNC(=O)Nc1cccc(C)c1)C1CCCc2ccccc21 (stereo not shown) [Compound 52]
- Chemotaxis Assay 10 µM (inhibition %) (CCR3/U937 cells (Table 3a)): 100%

Compound: CC[N+](CC)(CCCNC(=O)Nc1ccccc1)CCc1ccc(OC)cc1.[I-] [Compound 304]
- Chemotaxis Assay 10 µM (inhibition %) (CCR3/U937 cells (Table 3c)): 66%

Compound: O=C(O)CCCN(CCCNC(=O)Nc1ccc(Br)cc1)Cc1cccs1 [Compound 69]
- Chemotaxis Assay 10 µM (inhibition %) (CCR3/U937 cells (Table 3a)): 81%

Compound: CC[N+](CCCNC(=O)Nc1ccccc1)(CCc1ccc(Cl)cc1)CCc1ccc(Cl)cc1.[I-] [compound 317]
- Chemotaxis Assay 10 µM (inhibition %) (CCR3/U937 cells (Table 3c)): 100%

Compound: O=C(NCCCN(CCc1ccc(Cl)cc1)Cc1ccccc1)Nc1ccccc1 [Compound 28]
- Chemotaxis Assay 10 µM (inhibition %) (CCR3/U937 cells (Table 3a)): 76%

Compound: CC[N+](CCCNC(=O)Nc1ccccc1)(CCc1ccc(Cl)cc1)Cc1ccc(Br)cc1.[I-] (stereo not shown) [compound 340]
- Chemotaxis Assay 10 µM (inhibition %) (CCR3/U937 cells (Table 3c)): 100%

Compound: CC[N+](CCF)(CCCNC(=O)Nc1ccc(C#N)cc1)CCc1cccc(Cl)c1.[I-] (stereo not shown) [compound 403]
- Chemotaxis Assay 0.1 µg/ml (inhibition %): 77%

Compound: CC[N+](CCCNC(=O)Nc1ccccc1)(CCc1ccc(Cl)cc1Cl)CC1CCC1.[I-] (stereo not shown) [compound 419]
- Chemotaxis Assay 0.1 µg/ml (inhibition %): 76%

Compound: COC(=O)CCCN(CCCNC(=O)Nc1ccc(Br)cc1C)C1CCCc2ccccc21 (stereo not shown) [Compound 200]
- Chemotaxis Assay 10 µM (inhibition %) (CCR3/U937 cells (Table 3a)): 100%

Compound: CCC(CC)C[N+](CC)(CCCNC(=O)Nc1ccccc1)CCc1cccc(Cl)c1.[I-] (stereo not shown) [compound 428]
- Chemotaxis Assay 0.1 µg/ml (inhibition %): 93%

Compound: O=C(NCCCN(CCc1ccc(Cl)cc1)Cc1ccncc1)Nc1ccccc1 [Compound 24]
- Chemotaxis Assay 10 µM (inhibition %) (CCR3/U937 cells (Table 3a)): 100%

Compound: COC(=O)CCCN(CCCNC(=O)Nc1ccc(C)cc1)C1CCCc2ccccc21 (stereo not shown) [Compound 34, Methyl 4-[[3-(4-methylphenylureido)propyl](1,2,3,4-tetrahydro-1-naphthyl)amino]butylate]
- Chemotaxis Assay 10 µM (inhibition %) (CCR3/U937 cells (Table 3a)): 96%

Compound: Cc1cc(Br)ccc1NC(=O)NCCCN(CCCC(=O)O)C1CCCc2ccccc21 (stereo not shown) [Compound 201]
- Chemotaxis Assay 10 µM (inhibition %) (CCR3/U937 cells (Table 3a)): 100%

Compound: CC[N+](CCCNC(=O)Nc1ccc(C#N)cc1)(CCOCCOC)CCc1cccc(OC)c1.[I-] (stereo not shown) [compound 392]
- Chemotaxis Assay 0.1 µg/ml (inhibition %): 45%

Compound: COC(=O)CCCN(CCCNC(=O)Nc1ccc(Br)cc1)[C@@H]1CCc2ccccc21 [Compound 178, Methyl 4-[[3-(4-bromophenylureido)propyl][(1R)-1-indanyl]amino]butylate]
- Chemotaxis Assay 10 µM (inhibition %) (CCR3/U937 cells (Table 3a)): 100%

Compound: CCN(CCCCCNC(=O)Nc1ccccc1)CCc1ccc(Cl)cc1 [Compound 8]
- Chemotaxis Assay 10 µM (inhibition %) (CCR3/U937 cells (Table 3a)): 94%

Compound: CC(=O)c1ccc(NC(=O)NCCCN(CCCC(=O)O)C2CCCc3ccccc32)cc1 (stereo not shown) [Compound 278]
- Chemotaxis Assay 10 µM (inhibition %) (CCR3/U937 cells (Table 3a)): 100%

Compound: CC[N+](CC)(CCCNC(=O)Nc1ccccc1)C1CCc2ccccc21.[I-] (stereo not shown) [compound 311]
- Chemotaxis Assay 10 µM (inhibition %) (CCR3/U937 cells (Table 3c)): 93%

Compound: CC[N+](CCCNC(=O)Nc1ccccc1)(CCc1ccc(Cl)c(Cl)c1)CC(N)=O.[I-] (stereo not shown) [compound 410]
- Chemotaxis Assay 0.1 µg/ml (inhibition %): . 50%

Compound: COc1cc(CN(CCCNC(=O)Nc2ccccc2)CCc2ccc(Cl)cc2)cc(OC)c1 [Compound 292]
- Chemotaxis Assay 10 µM (inhibition %) (CCR3/U937 cells (Table 3a)): 56%

Compound: CC[N+](CCF)(CCCNC(=O)Nc1ccc(Cl)c(Cl)c1)CCc1cccc(Cl)c1.[I-] (stereo not shown) [compound 369]
- Chemotaxis Assay 0.1 µg/ml (inhibition %): 82%

Compound: O=C(O)CCCN(CCCNC(=O)Nc1ccc(Oc2ccccc2)cc1)C1CCCc2ccccc21 (stereo not shown) [Compound 89]
- Chemotaxis Assay 10 µM (inhibition %) (CCR3/U937 cells (Table 3a)): 89%

Compound: O=C(O)CCCN(CCCNC(=O)Nc1ccc(F)cc1)C1CCCc2ccccc21 (stereo not shown) [Compound 188]
- Chemotaxis Assay 10 µM (inhibition %) (CCR3/U937 cells (Table 3a)): 100%

Compound: C=C(C)C[N+](CC)(CCCNC(=O)Nc1ccc(Cl)c(Cl)c1)CCc1ccccc1.[I-] (stereo not shown) [compound 368]
- Chemotaxis Assay 0.1 µg/ml (inhibition %): 88%

Compound: COC(=O)CCCN(CCCNC(=O)Nc1ccc(Br)cc1)Cc1ccncc1 [Compound 48]
- Chemotaxis Assay 10 µM (inhibition %) (CCR3/U937 cells (Table 3a)): 34%

Compound: CC[N+](CCF)(CCCNC(=O)Nc1ccc(C#N)cc1)CCc1ccc(Cl)cc1Cl.[I-] (stereo not shown) [compound 404]
- Chemotaxis Assay 0.1 µg/ml (inhibition %): 47%

Compound: CC[N+](CCCNC(=O)Nc1ccccc1)(CCc1ccc(Cl)cc1)Cc1ccc(Cl)c(Cl)c1.[I-] (stereo not shown) [compound 349]
- Chemotaxis Assay 10 µM (inhibition %) (CCR3/U937 cells (Table 3c)): 100%

Compound: COC(=O)CCCN(CCCNC(=O)Nc1ccc(Br)cc1)C1CCc2ccccc21 (stereo not shown) [Compound 176]
- Chemotaxis Assay 10 µM (inhibition %) (CCR3/U937 cells (Table 3a)): 75%

Next, values leading:

- inhibition at 10 µM (CCR3/U937 cells (Table 3a)): 100%
Compound: O=C(O)CCCN(CCCNC(=O)Nc1ccc(Br)cc1)[C@@H]1CCCc2ccccc21 [Compound 181, 4-[[3-(4-Bromophenylureido)propyl][(1R)-1,2,3,4-tetrahydro-1-naphthyl]amino]butanoic acid]

- inhibition at 10 µM (CCR3/U937 cells (Table 3c)): 100%
Compound: CC[N+](CC)(CCCNC(=O)Nc1ccccc1)CCc1cccc(Cl)c1 [Compound 309, [3-(Phenylureido)propyl][2-(3-chlorophenyl)ethyl]diethylammonium iodide]

- Chemotaxis Assay 0.1 µg/ml (inhibition %): 44%
Compound: C=C(C)C[N+](CC)(CCCNC(=O)Nc1ccccc1)CCc1ccccc1.[I-] (stereo not shown) [compound 426]

- Chemotaxis Assay 10 µM (inhibition %) (CCR3/U937 cells (Table 3a)): . 97%
Compound: COC(=O)CCCN(CCCNC(=O)Nc1ccc(Br)cc1)CCc1ccc(Cl)cc1 [Compound 31, Methyl 4-[[3-(4-bromophenylureido)pcopyl][2-(4-chlorophenyl)-ethyl]amino]butylate]

- Chemotaxis Assay 10 µM (inhibition %) (CCR3/U937 cells (Table 3c)): 100%
Compound: CC[N+](CC)(CCCNC(=O)Nc1ccccc1)CCc1ccc(F)cc1.[I-] [Compound 306]

- Chemotaxis Assay 10 µM (inhibition %) (CCR3/U937 cells (Table 3a)): 100%
Compound: CC(C)N(CCCNC(=O)Nc1ccccc1)CCc1ccc(Cl)cc1 [Compound 276]

- Chemotaxis Assay 0.1 µg/ml (inhibition %): 68%
Compound: CC[N+](CCF)(CCCNC(=O)Nc1ccc(Br)cc1)CCc1ccc(Cl)cc1.[I-] (stereo not shown) [compound 381]

- Chemotaxis Assay 10 µM (inhibition %) (CCR3/U937 cells (Table 3a)): 44%
Compound: O=C(O)CCCN(CCCNC(=O)Nc1ccc(Br)cc1)CCC(c1ccccc1)c1ccccc1 [Compound 76]

- Chemotaxis Assay 10 µM (inhibition %) (CCR3/U937 cells (Table 3a)): 44%
Compound: COc1ccc(CCN(CCCNC(=O)Nc2ccc(Br)cc2)CCCC(=O)O)cc1OC [Compound 73]

- Chemotaxis Assay 0.1 µg/ml (inhibition %): 66%
Compound: CC[N+](CCCNC(=O)Nc1ccccc1)(CCc1cccc(F)c1)CC1CCC1.[I-] (stereo not shown) [compound 421]

- Chemotaxis Assay 10 µM (inhibition %) (CCR3/U937 cells (Table 3a)): 100%
Compound: O=C(O)CCCN(CCCNC(=O)Nc1ccc(Cl)c(C(F)(F)F)c1)C1CCCc2ccccc21 (stereo not shown) [Compound 84]

- Chemotaxis Assay 10 µM (inhibition %) (CCR3/U937 cells (Table 3a)): 100%
Compound: COC(=O)CCCCN(CCCNC(=O)Nc1ccccc1)CCc1ccc(Cl)cc1 [Compound 241]

- Chemotaxis Assay 0.1 µg/ml (inhibition %): 98%
Compound: CC[N+](CCCNC(=O)Nc1ccccc1)(CCOCCOC)CCc1ccc(Cl)cc1Cl.[I-] (stereo not shown) [compound 414]
